Columns and labels:
Assay type in all cases: in vivo
corn (Zea mays) = assay: Test A greenhouse herbicide test, pre- and postemergence; settings: Postemergence; for Corn plant response rating: 0 to 100 scale, 0 is no effect, 100 is complete control
Procedure, shortened: (§1)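 Visual injury ratings, 0 (no effect) to 100 (complete control), versus untreated plants after roughly 10 d in a greenhouse. Compounds, formulated in a surfactant-containing non-phytotoxic solvent, were sprayed on loam–sand soil after sowing (pre) or on one- to two-leaf plants 2–10 cm tall (post).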

[1] = tested on: ryegrass, Italian (Italian ryegrass, Lolium multiflorum); assay: as above
Procedure, shortened: as §1

[2] = tested on: ragweed (common ragweed, Ambrosia elatior); assay: as above
Procedure, shortened: as §1

[3] = tested on: wheat (Triticum aestivum); assay: as above; settings: Postemergence; for Wheat plant response rating: 0 to 100 scale, 0 is no effect, 100 is complete control
Procedure, shortened: as §1

[4] = tested on: pigweed (Amaranthus retroflexus); assay: as above
Procedure, shortened: as §1

[5] = tested on: foxtail, giant (giant foxtail, Setaria faberii); assay: as above
Procedure, shortened: as §1

[6] = tested on: barnyardgrass (Echinochloa crus-galli); assay: Test B flooded paddy test; settings: 250 g ai/ha, Flood; visual rating on scale of 0 to 100 where 0 is no effect and 100 is complete control; 13 to 15 d after treatment
Procedure, shortened: (§2)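 Ratings use a 0-100 visual scale, where 100 is complete control, and compare treated plants with controls after 13 to 15 d of greenhouse growth. Compound went straight into paddy water kept 3 cm over the soil surface, applied to seedlings at the 2-leaf stage.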

rice (Oryza sativa) = assay: Test B flooded paddy test; settings: 250 g ai/ha, Flood; visual rating on scale of 0 to 100 where 0 is no effect and 100 is complete control; 13 to 15 d after treatment
Procedure, shortened: as §2

[7] = tested on: sedge, umbrella (small-flower umbrella sedge, Cyperus difformis); assay: Test B flooded paddy test; settings: 250 g ai/ha, Flood; visual rating on scale of 0 to 100 where 0 is no effect and 100 is complete control; 13 to 15 d after treatment
Procedure, shortened: as §2

[8] = tested on: ducksalad (Heteranthera limosa); assay: Test B flooded paddy test; settings: 250 g ai/ha, Flood; visual rating on scale of 0 to 100 where 0 is no effect and 100 is complete control; 13 to 15 d after treatment
Procedure, shortened: as §2

[9] = 125 g ai/ha, visual rating after approx. 10 d, 0 to 100 scale (0 no effect, 100 complete control)
[10] = Postemergence, 125 g ai/ha, 0 to 100 scale where 0 is no effect and 100 is complete control
[11] = Postemergence, 500 g ai/ha, 0 to 100 scale, 0 is no effect, 100 is complete control
[12] = Preemergence, 125 g ai/ha, 0 to 100 scale where 0 is no effect and 100 is complete control
[13] = Preemergence, 500 g ai/ha, 0 to 100 scale, 0 no effect, 100 complete control
[14] = Postemergence, 125 g ai/ha, visual rating after approx. 10 d, 0 to 100 scale (0 no effect, 100 complete control)
[15] = 125 g ai/ha, 0 to 100 scale where 0 is no effect and 100 is complete control
[16] = 500 g ai/ha, visual rating after approx. 10 d, 0 to 100 scale (0 no effect, 100 complete control)
[17] = Postemergence, 500 g ai/ha, visual rating after approx. 10 d, 0 to 100 scale (0 no effect, 100 complete control)
[18] = Preemergence, 500 g ai/ha, 0 to 100 scale where 0 is no effect and 100 is complete control

SMILES | Plant response rating, Corn (corn (Zea mays); [9]) | Corn plant response rating (corn (Zea mays); 500 g ai/ha) | Plant response rating, Ryegrass, Italian [1, 10] | Ryegrass, Italian plant response rating [1, 11] | Ryegrass, Italian plant response rating [1, 12] | Plant response rating, Ryegrass, Italian [1, 13] | Plant response rating, Ragweed [2, 14] | Ragweed plant response rating [2, 11] | Ragweed plant response rating [2, 12] | Plant response rating, Ragweed [2, 13] | Plant response rating, Wheat [3, 15] | Wheat plant response rating ([3]; 500 g ai/ha) | Pigweed plant response rating [4, 11] | Pigweed plant response rating [4, 12] | Foxtail, Giant plant response rating [5, 11] | Foxtail, Giant plant response rating [5, 12] | Plant response rating, Barnyardgrass [6] | Plant response rating, Rice (rice (Oryza sativa)) | Plant response rating, Sedge, Umbrella [7] | Plant response rating, Ducksalad [8] | further results
Cc1ccc2sc(C)c(-c3c(OC(=O)C(C)(C)C)c(C)nn(C)c3=O)c2c1 [Compound 26] | 0 | 0 | 60 | 90 | 30 | 70 | 60 | 90 | 20 | 40 | 0 | 0 | 90 | 80 | 60 | 30 | 0 | 0 | 0 | 0 | Plant response rating, Pigweed [4, 14]: 80; Plant response rating, Pigweed [4, 13]: 100; Plant response rating, Foxtail, Giant [5, 14]: 10; Plant response rating, Foxtail, Giant [5, 13]: 50
COC(=O)Oc1c(C)nn(C)c(=O)c1-c1ccc(F)c2ccccc12 [Compound 130] | – | – | 100 | – | 100 | – | – | – | 60 | – | 0 | – | – | 90 | – | 30 | 0 | 0 | 0 | 0 | Plant response rating, Corn (corn (Zea mays); [15]): 0; Plant response rating, Corn (corn (Zea mays); [16]): 30; Plant response rating, Ryegrass, Italian [1, 17]: 100; Plant response rating, Ryegrass, Italian [1, 18]: 100; Plant response rating, Ragweed [2, 10]: 70; Plant response rating, Ragweed [2, 17]: 100; Plant response rating, Ragweed [2, 18]: 90; Plant response rating, Wheat [3, 16]: 30; Plant response rating, Pigweed [4, 10]: 100; Plant response rating, Pigweed [4, 17]: 100; Plant response rating, Pigweed [4, 18]: 100; Plant response rating, Foxtail, Giant [5, 10]: 70; Plant response rating, Foxtail, Giant [5, 17]: 90; Plant response rating, Foxtail, Giant [5, 18]: 90
Cc1ccc2ccccc2c1-c1c(O)c(I)nn(C)c1=O [Compound 29] | 10 | 40 | 90 | 100 | 80 | 90 | 90 | 100 | 90 | 90 | 40 | 60 | 100 | 100 | 90 | 80 | 0 | 0 | 60 | 55 | Plant response rating, Pigweed [4, 14]: 90; Plant response rating, Pigweed [4, 13]: 100; Plant response rating, Foxtail, Giant [5, 14]: 80; Plant response rating, Foxtail, Giant [5, 13]: 90
Cc1ccc2sc(Br)c(-c3c(O)c(C)nn(C)c3=O)c2c1 [Compound 79] | – | 0 | 80 | 90 | 80 | – | – | 90 | 80 | – | 0 | 0 | 90 | 100 | 80 | 90 | 0 | 0 | 0 | 0 | Plant response rating, Corn (corn (Zea mays); [15]): 0; Plant response rating, Ryegrass, Italian [1, 18]: 100; Plant response rating, Ragweed [2, 10]: 90; Plant response rating, Ragweed [2, 18]: 80; Plant response rating, Pigweed [4, 10]: 90; Plant response rating, Pigweed [4, 18]: 100; Plant response rating, Foxtail, Giant [5, 10]: 70; Plant response rating, Foxtail, Giant [5, 18]: 90
Cc1ccc2ccccc2c1-c1c(OC(=O)OC(C)C)c(C)nn(C)c1=O [Compound 72] | – | 40 | 100 | 100 | 100 | – | – | 90 | 90 | – | 20 | 70 | 90 | 100 | 90 | 70 | 0 | 0 | 0 | 0 | Plant response rating, Corn (corn (Zea mays); [15]): 20; Plant response rating, Ryegrass, Italian [1, 18]: 100; Plant response rating, Ragweed [2, 10]: 70; Plant response rating, Ragweed [2, 18]: 90; Plant response rating, Pigweed [4, 10]: 90; Plant response rating, Pigweed [4, 18]: 100; Plant response rating, Foxtail, Giant [5, 10]: 30; Plant response rating, Foxtail, Giant [5, 18]: 100
Cc1nn(C)c(=O)c(-c2c(C)sc3ccc(Br)cc23)c1O [Compound 22] | 0 | 0 | – | 100 | 100 | 100 | 90 | 100 | 90 | 90 | – | 0 | 100 | 100 | 90 | 70 | 0 | 0 | 0 | 0 | Plant response rating, Ryegrass, Italian [1, 14]: 80; Plant response rating, Wheat [3, 9]: 0; Plant response rating, Pigweed [4, 14]: 100; Plant response rating, Pigweed [4, 13]: 100; Plant response rating, Foxtail, Giant [5, 14]: 60; Plant response rating, Foxtail, Giant [5, 13]: 90

From patent publication US10597388B2, “Pyridazinone herbicides” (FMC CORPORATION, priority 2014, dated 2020)
